Data on five molecules can be found in patent publication US20260250320A1, “LIPIDATED PEPTIDE INHIBITORS OF INTERLEUKIN-23 RECEPTOR” (Janssen Pharmaceutica NV, priority 2023, published 2026).

*1 amine or outer side, *2 acyl side, *3 side chain or, on linkers, in order; H or OH if unused. Where a SMILES comes first, the peptide text is derived from it. Bridges are numbered along the chain shown (N, C = ends). Side-chain parts run from the residue outwards. [ ]: non-standard residue; d: D form. The star is where a group is joined. ξ: configuration not given here. Me3N+CH2CH2(OCH2CH2)4CO = C[N+](C)(C)CCOCCOCCOCCOCCC(=O)*; X28 = CC(=O)[C@H](CCC(=O)*)NC(=O)CCCCCCCCCCCCCCCCC(=O)O; Trp(7-Me) = Cc1cccc2c(C[C@H](N)C(=O)O)c[nH]c12; X6 = CN(CC[C@H](N[*:1])C(=O)[*:2])[*:3]; 2Nal = N[C@@H](Cc1ccc2ccccc2c1)C(=O)O; PEG6 = NCCOCCOCCOCCOCCOCCOCCC(=O)O; ξAEF = NCCOc1ccc(CC(N)C(=O)O)cc1; 3Pal = N[C@@H](Cc1cccnc1)C(=O)O; NMeK = CN[C@@H](CCCCN)C(=O)O; Pen = CC(C)(S)[C@H](N)C(=O)O; Thp = NC1(C(=O)O)CCOCC1; Sar = CNCC(=O)O

The target in test [1] is T1, IL-23R (Homo sapiens, UniProt Q5VWK5).
T1 construct: HEK293 cells containing IL-23R, IL-12Rβ1 and a firefly luciferase reporter gene driven by a STAT-inducible promoter (Promega); host or cells: HEK293
T1 sequence (Q5VWK5 24-629): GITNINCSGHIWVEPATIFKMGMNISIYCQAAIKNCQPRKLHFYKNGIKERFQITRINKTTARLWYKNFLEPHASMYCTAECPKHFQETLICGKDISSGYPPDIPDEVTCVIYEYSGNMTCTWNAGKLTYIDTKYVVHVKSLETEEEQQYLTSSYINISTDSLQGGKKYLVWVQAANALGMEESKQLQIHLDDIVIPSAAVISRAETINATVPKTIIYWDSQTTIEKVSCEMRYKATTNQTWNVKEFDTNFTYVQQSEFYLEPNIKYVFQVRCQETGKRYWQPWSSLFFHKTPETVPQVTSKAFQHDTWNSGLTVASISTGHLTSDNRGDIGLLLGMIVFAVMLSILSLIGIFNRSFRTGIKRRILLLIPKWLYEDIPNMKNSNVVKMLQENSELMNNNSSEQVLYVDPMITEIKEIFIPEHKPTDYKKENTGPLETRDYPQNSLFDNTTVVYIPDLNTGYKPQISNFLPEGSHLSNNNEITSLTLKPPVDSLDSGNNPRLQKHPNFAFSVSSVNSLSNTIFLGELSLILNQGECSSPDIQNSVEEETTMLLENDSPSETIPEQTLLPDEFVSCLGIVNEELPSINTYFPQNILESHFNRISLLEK
The test is described as follows: IL23R Reporter Assay. Particulars: HEK293 cells containing IL-23R, IL-12Rβ1 and STAT-inducible firefly luciferase reporter; 10 ng/mL IL-23 (EC90); 5 h. The test is classed as cell-based. The essentials: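 IC50 values were fitted with a 4-parameter Hill equation to luciferase signal, scaled between IL-23-only wells (0% inhibition) and 30 μM reference inhibitor (100%). The readout was a STAT-inducible reporter in IL-23R/IL-12Rβ1 HEK293 cells, stimulated with added 10 ng/mL IL-23 (EC90) for 5 h at 37° C and developed with BioGlo.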

Test [2] concerns IL-23-stimulated phosphorylated STAT3 in peripheral blood mononuclear cells (PBMCs). The test is described as follows: PBMC pSTAT3 Assay. The settings on record: PBMCs from healthy donors; 30 min preincubation with peptide; IL-23 5 ng/mL for 30 min; phospho-STAT3 by MSD. The test is classed as cell-based. The method, boiled down: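 Phospho-STAT3 quantified by Meso Scale assay in lysates of PBMCs exposed to IL-23 (5 ng/mL, 30 min, 37 °C) after 30 min peptide pretreatment. Cells were cryopreserved donor PBMCs activated 4 days with anti-CD3 plus IL-1β (100 ng/mL) and starved ~4 h; IC50 reported.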

In test [3] the target is T2, interleukin-23 receptor (IL-23R) (UniProt Q5VWK5 24-629, limits assumed).
T2 sequence (looked up): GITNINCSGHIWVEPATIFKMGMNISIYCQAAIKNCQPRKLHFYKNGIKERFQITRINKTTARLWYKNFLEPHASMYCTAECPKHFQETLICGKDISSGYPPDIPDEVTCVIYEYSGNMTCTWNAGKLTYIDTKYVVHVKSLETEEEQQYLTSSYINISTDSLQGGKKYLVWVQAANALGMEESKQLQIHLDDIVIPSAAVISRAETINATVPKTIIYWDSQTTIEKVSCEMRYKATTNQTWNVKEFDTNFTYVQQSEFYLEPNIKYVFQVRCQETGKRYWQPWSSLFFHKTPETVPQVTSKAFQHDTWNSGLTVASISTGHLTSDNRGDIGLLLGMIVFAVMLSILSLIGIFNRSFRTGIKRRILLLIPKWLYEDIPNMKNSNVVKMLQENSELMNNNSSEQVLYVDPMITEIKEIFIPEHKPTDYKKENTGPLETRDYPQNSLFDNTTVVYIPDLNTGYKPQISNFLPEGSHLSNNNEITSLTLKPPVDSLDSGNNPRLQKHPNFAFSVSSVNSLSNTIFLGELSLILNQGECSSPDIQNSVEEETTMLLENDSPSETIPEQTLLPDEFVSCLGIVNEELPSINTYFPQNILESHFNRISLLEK
Briefly: cell-based or functional assay.

A word on the IC50: it is the point on the concentration scale where inhibition reaches its midpoint. High values mean lower potency, low ones higher potency. With `CC(=O)NCCCC[C@@H]1NC(=O)[C@H](Cc2c[nH]c3c(C)cccc23)NC(=O)[C@H]([C@@H](C)O)NC(=O)[C@H](CC(N)=O)NC(=O)[C@@H](NC(=O)COCCOCCNC(=O)COCCOCCNC(=O)CC[C@H](NC(=O)CCCCCCCCCCCCCCCCC(=O)O)C(=O)O)C(C)(C)SSC(C)(C)[C@@H](C(=O)N[C@@H](Cc2ccc(OCCN)cc2)C(=O)N[C@@H](Cc2ccc3ccccc3c2)C(=O)NC2(C(=O)N[C@@H](CCCCNC(=O)CCC(=O)N[C@H](CC(=O)O)C[N+](C)(C)C)C(=O)N[C@@H](CC(N)=O)C(O)N[C@@H](Cc3cccnc3)C(=O)N(C)CC(N)=O)CCOCC2)NC1=O` (stereo partly drawn) [compound 44, HOC18gEPEG2PEG2CO-Pen(3)-N-T-7MeW-K(Ac)-Pen(3)-AEF-2Nal-THP-K(d)-N-3Pya-Sar-CONH2], the IC50 was under 50 nM in test [1] and under 0.5 nM in test [2]. For `CC(=O)[C@H](CCC(=O)NCCOCCOCCOCCOCCOCCOCCC(=O)NCCCC[C@@H](C(N)=O)N(C)C(=O)[C@H](Cc1cccnc1)NC(=O)[C@H](CC(N)=O)NC(=O)[C@H](CCC(=O)O)NC(=O)C1(NC(=O)[C@H](Cc2ccc3ccccc3c2)NC(=O)C(Cc2ccc(OCCN)cc2)NC(=O)[C@H]2NC(=O)[C@H](CCN(C)C(=O)CCOCCOCCOCCOCC[N+](C)(C)C)NC(=O)[C@H](Cc3c[nH]c4c(C)cccc34)NC(=O)[C@H]([C@@H](C)O)NC(=O)[C@H](CC(=O)N(C)C)NC(=O)[C@@H](NC(=O)CCOCCOCCOCCOCC[N+](C)(C)C)C(C)(C)SSC2(C)C)CCOCC1)NC(=O)CCCCCCCCCCCCCCCCC(=O)O` (stereo partly drawn) [compound 91, HOC18gEPEG2PEG2COSP6-Pen(3)-N(N(Me)2)-T-7MeW-K(NMeAc)-Pen(3)-APEG3F-2Nal-THP-K(NMeAc)-N-3Pya-Sar-CON(Me)2] ({Me3N+CH2CH2(OCH2CH2)4CO}-[Pen]D(NMe2)T[Trp(7-Me)][X6](Me3N+CH2CH2(OCH2CH2)4CO)[Pen][ξAEF][2Nal][Thp]EN[3Pal][NMeK]([PEG6-X28])-NH2; disulfide 1-6), the values for the IC50 in test [1] and in test [2] were under 50 nM and under 0.5 nM, respectively.

B1: SEQ ID NO: 16 (peptide)
peptide: Ac-[dR][Pen]NT[Trp(7-Me)]K(Ac)[Pen]X[2Nal][Thp]EN[3Pal][NMeK]-NH2
modifications: disulfide 2-7 (inferred); not fully specified (residues 8, 14); printed as MeCO-r-Pen(3)-N-T-7MeW-K(Ac)-Pen(3)-AEF(d)-2Nal-THP-E-N-3Pya-NMeK(PEG2PEG2gEC18OH)-CONH2
Take B1: in test [3], the “PBMC pSTAT3 IC50” value is under 0.5 nM.

B2: SEQ ID NO: 17 (peptide)
peptide: Ac-K[Pen]NT[Trp(7-Me)]K(Ac)[Pen]X[2Nal][Thp]EN[3Pal][Sar]-NH2
modifications: disulfide 2-7 (inferred); not fully specified (residues 1, 8); printed as MeCO-k(PEG2PEG2gEC18OH)-Pen(3)-N-T-7MeW-K(Ac)-Pen(3)-AEF(d)-2Nal-THP-E-N-3Pya-Sar-CONH2
Regarding B2, the “PBMC pSTAT3 IC50” value in test [3] is under 0.5 nM.

B3: SEQ ID NO: 2 (peptide)
peptide: XNTXXXXXXXNXXK
modifications: not fully specified; MeCO-Pen(3)-N-T-7MeW-K(Ac)-Pen(3)-AEF-2Nal-THP-K(Ac)-N-3Pya-Sar-K(PEG2NMePEG2NMegENMeC18Tetrazole)-CONH2
Take B3: the “PBMC pSTAT3 IC50” value in test [3] is under 0.5 nM.
